What was measured:
barnyardgrass [1] = assay: Test A preemergence; format: in vivo, Echinochloa crus-galli; details: 0 to 100 scale
Outline: (§1)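 Greenhouse test in loam soil/sand blend; compounds formulated in non-phytotoxic solvent with surfactant, applied as preemergence directed soil spray or postemergence to plants 2–10 cm tall at one- to two-leaf stage. Injury rated visually versus untreated controls after approximately 10 days on a 0 (no effect) to 100 (complete control) scale.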

crabgrass, large [2] = assay: Test A preemergence; format: in vivo, Digitaria sanguinalis; details: 0 to 100 scale
Outline: as §1

velvetleaf [3] = assay: Test A preemergence; format: in vivo, Abutilon theophrasti; details: 0 to 100 scale
Outline: as §1

barnyardgrass [4] = assay: Test A postemergence; format: in vivo, Echinochloa crus-galli; details: Postemergence
Outline: as §1

crabgrass, large [5] = assay: Test A postemergence; format: in vivo, Digitaria sanguinalis
Outline: as §1

pigweed = assay: Test A postemergence; format: in vivo, Amaranthus retroflexus
Outline: as §1

wheat = assay: Test C postemergence; format: in vivo, Triticum aestivum; details: postemergence; for Wheat plant response rating: 62 g ai/ha, scale 0 to 100
Excerpt: (§2) Seeds of plant species selected from blackgrass (Alopecurus myosuroides), ryegrass, Italian (Italian ryegrass, Lolium multiflorum), wheat (winter wheat, Triticum aestivum), galium (catchweed bedstraw, Galium aparine), corn (Zea mays), crabgrass, large (large crabgrass, Digitaria sanguinalis), foxtail, giant (giant foxtail, Setaria faberii), johnsongrass (Sorghum halepense), lambsquarters (Chenopodium album), morningglory (Ipomoea coccinea), nutsedge, yellow (yellow nutsedge, Cyperus esculentus), pigweed (redroot pigweed, Amaranthus retroflexus), ragweed (common ragweed, Ambrosia elation), soybean (Glycine max), barnyardgrass (Echinochloa crus-galli), oilseed rape (Brassica napus), waterhemp (common waterhemp, Amaranthus rudis), oat, wild (wild oat, Avena fatua), kochia (Kochia scoparia), Surinam grass (Brachiaria decumbens), foxtail, green (green foxtail, Setaria viridis), goosegrass (Eleusine indica), bromegrass, downy (downy bromegrass, Bromus tectorum), nightshade (eastern black nightshade, Solanum ptycanthum), cocklebur (common cocklebur, Xanthium strumarium), cupgrass, woolly (woolly cupgrass, Eriochloa villosa), bermudagrass (Cynodon dactylon), sunflower, (common oilseed sunflower, Helianthus annuus), Russian thistle (Salsola kali), and velvetleaf (Abutilon theophrasti) were planted into a blend of loam soil and sand and treated preemergence with test chemicals formulated in a non-phytotoxic solvent mixture which included a surfactant.
(§3) At the same time, plants selected from these crop and weed species and also chickweed (common chickweed, Stellaria media), canarygrass (littleseed canarygrass, Phalaris minor), and deadnettle (henbit deadnettle, Lamium amplexicaule), were planted in pots containing Redi-Earth® planting medium (Scotts Company, 14111 Scottslawn Road, Marysville, Ohio 43041) comprising spaghnum peat moss, vermiculite, wetting agent and starter nutrients and treated with postemergence applications of test chemicals formulated in the same manner. Plants ranged in height from 2 to 18 cm (1- to 4-leaf stage) for postemergence treatments. Treated plants and controls were maintained in a greenhouse for 13 to 15 days, after which time all species were compared to controls and visually evaluated. Plant response ratings, summarized in Table C, are based on a scale of 0 to 100 where 0 is no effect and 100 is complete control. A dash (-) response means no test result.

corn = assay: Test C postemergence; format: in vivo, Zea mays; details: for Corn plant response rating: Postemergence, 31 g ai/ha, scale 0 to 100; for Plant response rating, Corn: postemergence
Excerpt: as §2, §3

soybean [6] = assay: Test C postemergence; format: in vivo, Glycine max; details: postemergence; for Soybean plant response rating: 62 g ai/ha, scale 0 to 100
Excerpt: as §2, §3

velvetleaf [7] = assay: Test C postemergence; format: in vivo, Abutilon theophrasti; details: postemergence; for Velvetleaf plant response rating: 62 g ai/ha, scale 0 to 100
Excerpt: as §2, §3

nutsedge, yellow = assay: Test C preemergence; format: in vivo, Cyperus esculentus
Excerpt: as §2, §3

soybean [8] = assay: Test C preemergence; format: in vivo, Glycine max
Outline: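 In this greenhouse assay, seeded soil (loam plus sand) or emerged seedlings in peat-vermiculite medium were treated with formulated compound. Roughly two weeks later (13–15 days), each species was scored visually relative to controls, from 0 for no effect to 100 for complete control.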

velvetleaf [9] = assay: Test C preemergence; format: in vivo, Abutilon theophrasti
Excerpt: as §2, §3

[10] = Preemergence, 1000 g ai/ha, 0 no effect, 100 complete control
[11] = Postemergence, 1000 g ai/ha, visual rating after approx. 10 days, 0 to 100 scale (0 no effect, 100 complete control)
[12] = 250 g ai/ha, scale 0 to 100 (0 no effect, 100 complete control)
[13] = 125 g ai/ha, scale 0 to 100, 0 no effect, 100 complete control
[14] = 62 g ai/ha, scale 0 to 100, 0 no effect, 100 complete control
[15] = Preemergence, 500 g ai/ha, 0 no effect, 100 complete control
[16] = preemergence, 125 g ai/ha, visual injury, approx. 10 days
[17] = Postemergence, 500 g ai/ha, visual rating after approx. 10 days, 0 to 100 scale (0 no effect, 100 complete control)
[18] = postemergence, 125 g ai/ha, about 10 days, visual rating on 0 to 100 scale (0 no effect, 100 complete control)
[19] = preemergence, 31 g ai/ha, scale 0 to 100 (0 no effect, 100 complete control), 13 to 15 days
[20] = preemergence, 62 g ai/ha, 13 to 15 days, scale 0 to 100, 0 = no effect, 100 = complete control
[21] = preemergence, 125 g ai/ha, scale 0 to 100, 0 is no effect, 100 is complete control

For CCc1cc(C(=O)NCC(F)(F)F)nn1Cc1cccc(OC(F)(F)F)c1 [Compound 20], the “Barnyardgrass plant response rating” value (barnyardgrass [1]; [10]) was 80, the “Crabgrass, Large plant response rating” value (crabgrass, large [2]; [10]) was 90 and the “Velvetleaf plant response rating” value (velvetleaf [3]; [10]) was 70. The “Barnyardgrass plant response rating” value (barnyardgrass [4]; 1000 g ai/ha, visual rating after approx. 10 days, 0 to 100 scale (0 no effect, 100 complete control)) was 60, the “Crabgrass, Large plant response rating” value (crabgrass, large [5]; [11]) was 80 and the “Pigweed plant response rating” value (pigweed; [11]) was 100. For the same compound, the “Wheat plant response rating” value (wheat) was 15, the “Plant response rating, Wheat” value (wheat; [12]) was 25 and the “Plant response rating, Wheat” value (wheat; [13]) was 20. For the same compound, the “Corn plant response rating” value (corn) was 15, the “Plant response rating, Corn” value (corn; [12]) was 25 and the “Plant response rating, Corn” value (corn; [14]) was 20. For the same compound, the “Plant response rating, Corn” value (corn; [13]) was 20, the “Soybean plant response rating” value (soybean [6]) was 45 and the “Plant response rating, Soybean” value (soybean [6]; [12]) was 75. The “Plant response rating, Soybean” value (soybean [6]; [13]) was 60, the “Velvetleaf plant response rating” value (velvetleaf [7]) was 45 and the “Plant response rating, Velvetleaf” value (velvetleaf [7]; [12]) was 60. The “Plant response rating, Velvetleaf” value (velvetleaf [7]; [13]) was 45.
For CCc1cc(C(=O)NOC(C)C)nn1Cc1cccc(OC(F)(F)F)c1 [Compound 70], the “Barnyardgrass plant response rating” value (barnyardgrass [1]; [15]) was 100, the “Barnyardgrass plant response rating” value (barnyardgrass [1]; [16]) was 80 and the “Crabgrass, Large plant response rating” value (crabgrass, large [2]; [15]) was 100. The “Crabgrass, Large plant response rating” value (crabgrass, large [2]; [16]) was 100, the “Velvetleaf plant response rating” value (velvetleaf [3]; [15]) was 80 and the “Velvetleaf plant response rating” value (velvetleaf [3]; [16]) was 40. For the same compound, the “Barnyardgrass plant response rating” value (barnyardgrass [4]; 125 g ai/ha, 0 to 100 scale, 0 no effect, 100 complete control) was 80, the “Barnyardgrass plant response rating” value (barnyardgrass [4]; 500 g ai/ha, visual rating after approx. 10 days, 0 to 100 scale (0 no effect, 100 complete control)) was 90 and the “Crabgrass, Large plant response rating” value (crabgrass, large [5]; [17]) was 90. The “Crabgrass, Large plant response rating” value (crabgrass, large [5]; [18]) was 90, the “Pigweed plant response rating” value (pigweed; [17]) was 100 and the “Pigweed plant response rating” value (pigweed; [18]) was 90. For the same compound, the “Plant response rating (scale of 0 to 100), Nutsedge, Yellow” value (nutsedge, yellow; Preemergence, 250 g ai/ha) was 85, the “Nutsedge, Yellow plant response rating” value (nutsedge, yellow; [19]) was 0 and the “Plant response rating, Nutsedge, Yellow” value (nutsedge, yellow; [20]) was 65. For the same compound, the “Nutsedge, Yellow plant response rating” value (nutsedge, yellow; [21]) was 70, the “Plant response rating (scale of 0 to 100), Soybean” value (soybean [8]; Preemergence, 250 g ai/ha) was 75 and the “Soybean plant response rating” value (soybean [8]; [19]) was 5. The “Plant response rating, Soybean” value (soybean [8]; [20]) was 15, the “Soybean plant response rating” value (soybean [8]; [21]) was 70 and the “Plant response rating (scale of 0 to 100), Velvetleaf” value (velvetleaf [9]; Preemergence, 250 g ai/ha) was 100. The “Velvetleaf plant response rating” value (velvetleaf [9]; [19]) was 20, the “Plant response rating, Velvetleaf” value (velvetleaf [9]; [20]) was 60 and the “Velvetleaf plant response rating” value (velvetleaf [9]; [21]) was 75. For the same compound, the “Wheat plant response rating” value (wheat) was 15, the “Plant response rating, Wheat” value (wheat; [12]) was 25 and the “Plant response rating, Wheat” value (wheat; [13]) was 20. For the same compound, the “Corn plant response rating” value (corn) was 10, the “Plant response rating, Corn” value (corn; [12]) was 50 and the “Plant response rating, Corn” value (corn; [14]) was 40. The “Plant response rating, Corn” value (corn; [13]) was 45, the “Soybean plant response rating” value (soybean [6]) was 55 and the “Plant response rating, Soybean” value (soybean [6]; [12]) was 65. The “Plant response rating, Soybean” value (soybean [6]; [13]) was 55, the “Velvetleaf plant response rating” value (velvetleaf [7]) was 20 and the “Plant response rating, Velvetleaf” value (velvetleaf [7]; [12]) was 55. The “Plant response rating, Velvetleaf” value (velvetleaf [7]; [13]) was 30.
